# From PMC9588003, “TRPM8 contributes to sex dimorphism by promoting recovery of normal sensitivity in a mouse model of chronic migraine” (Nature Communications, 2022)
# Target: human TRPM8 (hTRPM8) (Homo sapiens, UniProt Q7Z2W7)
# Experiment: whole-cell patch clamp, hTRPM8-HEK293 cells; agonist dose-response
# Format: cell-based
# Sequence of human TRPM8 (hTRPM8) (Q7Z2W7 whole entry): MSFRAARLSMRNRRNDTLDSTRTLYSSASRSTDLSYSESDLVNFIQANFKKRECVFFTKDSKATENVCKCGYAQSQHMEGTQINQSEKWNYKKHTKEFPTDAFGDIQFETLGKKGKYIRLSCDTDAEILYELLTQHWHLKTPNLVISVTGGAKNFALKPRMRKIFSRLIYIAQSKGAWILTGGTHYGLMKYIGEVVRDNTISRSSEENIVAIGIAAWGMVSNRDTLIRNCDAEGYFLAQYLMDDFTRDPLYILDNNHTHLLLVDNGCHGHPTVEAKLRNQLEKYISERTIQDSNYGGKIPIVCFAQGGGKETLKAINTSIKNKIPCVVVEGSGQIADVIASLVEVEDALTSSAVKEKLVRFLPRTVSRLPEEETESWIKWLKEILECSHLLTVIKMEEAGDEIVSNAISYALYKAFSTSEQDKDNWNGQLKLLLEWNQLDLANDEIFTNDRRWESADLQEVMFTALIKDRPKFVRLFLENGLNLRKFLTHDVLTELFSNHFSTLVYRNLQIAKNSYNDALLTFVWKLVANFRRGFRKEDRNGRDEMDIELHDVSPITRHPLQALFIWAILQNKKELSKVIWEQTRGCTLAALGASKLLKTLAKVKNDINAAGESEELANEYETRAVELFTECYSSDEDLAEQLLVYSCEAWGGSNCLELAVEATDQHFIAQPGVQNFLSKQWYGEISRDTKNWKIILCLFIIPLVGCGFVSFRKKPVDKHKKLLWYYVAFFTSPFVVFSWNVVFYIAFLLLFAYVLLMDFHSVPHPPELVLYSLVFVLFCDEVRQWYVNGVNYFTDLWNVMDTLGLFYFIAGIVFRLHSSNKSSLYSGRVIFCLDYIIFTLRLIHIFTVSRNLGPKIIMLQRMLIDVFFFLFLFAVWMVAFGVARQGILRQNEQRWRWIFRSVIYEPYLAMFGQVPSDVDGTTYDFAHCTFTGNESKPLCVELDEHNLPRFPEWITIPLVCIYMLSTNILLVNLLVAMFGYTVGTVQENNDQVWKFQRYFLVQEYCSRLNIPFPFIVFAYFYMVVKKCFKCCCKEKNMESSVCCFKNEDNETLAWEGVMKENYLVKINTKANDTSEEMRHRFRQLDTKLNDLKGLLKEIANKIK
smiles,measurement,value
"COc1ccc(NC(=O)[C@@H]2C[C@H](C)CC[C@H]2C(C)C)cc1 [WS12, (1R,2S,5R)−2-Isopropyl-N-(4-methoxyphenyl)−5-methylcyclohexanecarboxamide]",EC50,500 nM
